Laboratory results: PubChem BioAssay (NCI)
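Interpolation was linear, between the two tested concentrations surrounding the appropriate level; five concentrations were tested over 48 hours in 96-well plates. At the TGI there is no net growth.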

What was measured:
Assay in all cases: inhibition of tumour cell growth, NCI panel, 48 h
RPMI-8226 leukemia = system: RPMI-8226 leukemia
SN12C renal = system: SN12C renal
MALME-3M melanoma = system: MALME-3M melanoma
MDA-MB-435 = system: MDA-MB-435
SK-MEL-2 melanoma = system: SK-MEL-2 melanoma
NCI-H23 lung = system: NCI-H23 lung
UACC-62 melanoma = system: UACC-62 melanoma
SW-620 colon = system: SW-620 colon
DU-145 prostate = system: DU-145 prostate
ACHN renal = system: ACHN renal
SNB-75 CNS = system: SNB-75 CNS
A498 renal = system: A498 renal
SK-MEL-5 melanoma = system: SK-MEL-5 melanoma
EKVX NSCLC = system: EKVX NSCLC
NCI/ADR-RES ovarian = system: NCI/ADR-RES ovarian

SMILES | TGI (RPMI-8226 leukemia) | TGI (SN12C renal) | TGI (MALME-3M melanoma) | TGI (MDA-MB-435) | TGI (SK-MEL-2 melanoma) | TGI (NCI-H23 lung) | TGI (UACC-62 melanoma) | TGI (SW-620 colon) | TGI (DU-145 prostate) | TGI (ACHN renal) | TGI (SNB-75 CNS) | TGI (A498 renal) | TGI (SK-MEL-5 melanoma) | TGI (EKVX NSCLC) | TGI (NCI/ADR-RES ovarian)
O=C(N=Nc1cccc(Cl)c1)NNc1cccc(Cl)c1 | 56.8 µM | 35.9 µM | 39.6 µM | 26.5 µM | 24.6 µM | > 100 µM | 24.1 µM | 35.5 µM | 41.8 µM | 50.8 µM | > 100 µM | 44.9 µM | 38.4 µM |  | 
O=C(CSc1nc2[nH]ncc2c(=O)[nH]1)c1ccc(Cl)cc1 | > 100 µM | > 100 µM | > 100 µM | > 100 µM | > 100 µM | > 100 µM | > 100 µM | > 100 µM |  | > 100 µM | > 100 µM |  | > 100 µM | > 100 µM | > 100 µM
CN(C)S(=O)(=O)/N=C/c1cccc(/C=N/S(=O)(=O)N(C)C)c1 | > 100 µM | > 100 µM |  | > 100 µM |  | > 100 µM | > 100 µM | > 100 µM | > 100 µM | > 100 µM | 92.8 µM | > 100 µM | > 100 µM | > 100 µM | > 100 µM
CC1(C)C(O)C[C@@H](O)[C@@]2(C)C1CC[C@]1(C)C2C[C@@H](O)[C@@H]2C([C@@]3(C)CC[C@@H](C(C)(C)O)O3)CCC21C (some centres not stated) | 66.5 µM | 26.9 µM | 31.8 µM |  | 28.9 µM | 35.3 µM | 22.6 µM | 30.5 µM |  | 35.8 µM | 29.7 µM | 34.9 µM | 22.6 µM | 53.9 µM | 
CNC(=O)N(CCC#N)CCCN(C(=O)NC)c1ccccc1 | > 100 µM | > 100 µM | > 100 µM | > 100 µM | > 100 µM | > 100 µM | > 100 µM | > 100 µM | > 100 µM | > 100 µM | > 100 µM |  | > 100 µM | > 100 µM | > 100 µM
CO/N=C(\C(=O)N(C)n1cnnc1)c1csc(NC(c2ccccc2)(c2ccccc2)c2ccccc2)n1 | > 10 µM | > 10 µM | > 10 µM |  | > 10 µM | > 10 µM |  | > 10 µM | > 10 µM | > 10 µM | > 10 µM | > 10 µM | > 10 µM | > 10 µM | > 10 µM
O=c1oc2ccccc2c(O)c1/C=N/C(=S)NCCc1ccccc1 | 89.3 µM | > 100 µM |  | > 75.3 µM | > 85.1 µM | > 88 µM | 99.4 µM | > 100 µM | > 100 µM | > 85.6 µM | > 87.5 µM |  | > 100 µM | > 100 µM | > 100 µM
CC(=O)CSc1c(-c2ccccc2)c(=O)n(-c2ccccc2)c(=S)n1-c1ccccc1 | > 100 µM | > 100 µM | > 100 µM | > 100 µM | > 100 µM | > 100 µM | > 100 µM | > 100 µM | > 100 µM | > 100 µM | > 100 µM |  | > 100 µM | > 100 µM | > 100 µM
COC(CC1(/C=C/O[Si](C(C)C)(C(C)C)C(C)C)C(=O)N(C)c2ccccc21)OC (configuration not stated) | > 100 µM | > 100 µM |  | > 100 µM | > 100 µM | > 100 µM | > 100 µM | > 100 µM | > 100 µM | > 100 µM | > 100 µM | > 100 µM | > 100 µM | > 100 µM | 78.4 µM
CO[C@@H]1C=C[C@@]23c4cc5c(cc4C(=O)O[C@H]2CN(C)[C@H]3C1)OCO5 | > 100 µM | > 100 µM |  |  | > 100 µM | > 100 µM | > 100 µM | > 100 µM |  | > 100 µM | > 100 µM | > 100 µM | > 100 µM | > 100 µM | 
CN(N)c1cc(=O)[nH]c(=O)[nH]1 | > 100 µM | > 100 µM | > 100 µM |  |  | > 100 µM | > 100 µM | > 100 µM | > 100 µM | > 100 µM |  | > 100 µM | > 100 µM | > 100 µM | > 100 µM
N#Cc1c(N)[nH]c(=S)c(C#N)c1-c1ccccc1 | > 100 µM | > 100 µM | > 100 µM |  | > 100 µM | > 100 µM | > 100 µM | > 100 µM | > 100 µM | > 100 µM | > 100 µM | > 100 µM | > 100 µM | > 100 µM | 
Cc1nc(N/N=C/c2ccccc2Cl)[nH]c(=O)c1CCO | > 100 µM | > 100 µM | 91.4 µM | > 100 µM |  | > 100 µM | > 100 µM | > 100 µM | > 100 µM | > 100 µM | 41.4 µM |  | > 100 µM | > 100 µM | > 100 µM
O=C(O)c1ccc(NC(NC(=O)C(C(F)(F)F)C(F)(F)F)(C(F)(F)F)C(F)(F)F)cc1 | > 100 µM | > 100 µM |  | > 100 µM | > 100 µM | > 100 µM |  | > 100 µM |  | > 100 µM | > 100 µM | > 100 µM | > 100 µM | > 100 µM | > 100 µM
Cc1cc(S(=O)(=O)Nc2cc(N)[nH]n2)c(SCc2nc(N)nc(N(C)C)n2)cc1Cl | > 10 µM | > 10 µM | > 10 µM |  | > 10 µM | > 10 µM |  | > 10 µM | > 10 µM | > 10 µM | > 10 µM | > 10 µM | > 10 µM | > 10 µM | > 10 µM
C=C(C)[C@H]1C=C[C@@H](OC(=O)c2cccnc2)[C@@]23CO[C@@](C)([C@H](OC(=O)c4cccnc4)[C@@]4(OC(C)=O)C[C@H](C)[C@H](OCCC)[C@@H]4[C@H]2OC(C)=O)[C@H]13 | > 15 µM | > 15 µM |  | > 15 µM | > 15 µM | > 15 µM | > 15 µM | > 15 µM | > 15 µM | > 15 µM | > 15 µM | > 15 µM | > 15 µM | > 15 µM | > 15 µM
